In patent US20020019527A1 (priority 2000, published 2002):
Structures can show the parent of a compound that is named as a salt.

target: T1, Farnesyltransferase (FTase) (Bos taurus, UniProt P29702+P49355); experiment: Farnesyltransferase inhibition (scintillation proximity assay, [3H]-FPP / biotin-K-ras peptide); assay type: biochemical, bovine; conditions: compound at 10^−6 M; bovine FTase, 37° C., 30 minutes
T1 construct: precipitation from a beef brain homogenate; from tissue; host or cells: bovine brain
In short: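 Bovine brain FTase, partially purified by 30–50% saturated ammonium sulfate precipitation and DEAE Sepharose chromatography, separated from GGTase I/II. Scintillation proximity read-out of [3H]-FPP transfer to biotin-K-ras peptide, counted 1 h after quench. Compounds added from ethanol with 10-fold dilution into assay.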

T1 sequence (P49355 whole entry, one chain of several): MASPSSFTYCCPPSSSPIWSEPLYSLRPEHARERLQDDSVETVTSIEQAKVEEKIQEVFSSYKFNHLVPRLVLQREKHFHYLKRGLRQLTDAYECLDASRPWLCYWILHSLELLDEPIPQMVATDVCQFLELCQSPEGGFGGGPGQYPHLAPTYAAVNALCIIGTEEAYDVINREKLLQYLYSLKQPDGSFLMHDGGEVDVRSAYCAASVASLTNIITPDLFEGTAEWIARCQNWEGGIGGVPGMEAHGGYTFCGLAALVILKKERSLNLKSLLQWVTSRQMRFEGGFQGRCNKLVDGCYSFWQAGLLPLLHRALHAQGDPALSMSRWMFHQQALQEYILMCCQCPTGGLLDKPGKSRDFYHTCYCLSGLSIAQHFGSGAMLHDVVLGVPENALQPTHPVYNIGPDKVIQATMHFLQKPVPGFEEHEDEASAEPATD

Row | SMILES | inhibition at 1 µM | % Inhibition at 10^−6M
1 | Cn1cncc1C(OCc1ccc(F)c(C(F)(F)F)c1)c1ccc(C#N)c(-c2cccc3cccnc23)c1 (stereo not shown) [Example 242, 4-(((4-fluoro-3-(trifluoromethyl)benzyl)oxy)(1-methyl-1H-imidazol-5-yl)methyl)-2-(8-quinolinyl)benzonitrile dihydrochloride] | 98% | 
2 | Cn1cncc1C(OCc1ccc(C(=O)O)cc1)c1ccc(C#N)c(-c2cccc3cccnc23)c1 (stereo not shown) [Example 243, 4-(((4-cyano-3-(8-quinolinyl)phenyl)(1-methyl-1H-imidazol-5-yl)methoxy)methyl)benzoic acid dihydrochloride] | 82% | 
3 | Cn1cncc1C(OCc1ccc(C#N)cn1)c1ccc(C#N)c(-c2cccc3cccnc23)c1 (stereo not shown) [Example 247, 6-(((4-cyano-3-(8-quinolinyl)phenyl)(1-methyl-1H-imidazol-5-yl)methoxy)methyl)nicotinonitrile trihydrochloride] | 95% | 
4 | Cn1cncc1C(OCc1ccc(Cl)c(Cl)c1)c1ccc(C#N)c(-c2ccccc2C(F)(F)F)c1 (stereo not shown) [Example 248, 5-(((3,4-dichlorobenzyl)oxy)(1-methyl-1H-imidazol-5-yl)methyl)-2′-(trifluoromethyl)(1,1′-biphenyl)-2-carbonitrile hydrochloride] | 98% | 
5 | Cn1cncc1C(OCc1ccc(F)c(C(F)(F)F)c1)c1ccc(C#N)c(-c2ccccc2C(F)(F)F)c1 (stereo not shown) [Example 250, 5-(((4-fluoro-3-(trifluoromethyl)benzyl)oxy)(1-methyl-1H-imidazol-5-yl)methyl)-2′-(trifluoromethyl)(1,1′-biphenyl)-2-carbonitrile hydrochloride] | 99% | 
6 | Cn1cncc1C(OCc1cccc(C#N)c1)c1ccc(C#N)c(-c2cccc3ccccc23)c1 (stereo not shown) [Example 262, 4-(((3-cyanobenzyl)oxy)(1-methyl-1H-imidazol-5-yl)methyl)-2-(1-naphthyl)benzonitrile] | 100% | 
7 | Cn1cncc1C(OCc1ccc(Br)cc1)c1ccc(C#N)c(-c2cccc3ccccc23)c1 (stereo not shown) [Example 263, 4-(((4-bromobenzyl)oxy)(1-methyl-1H-imidazol-5-yl)methyl)-2-(1-naphthyl)benzonitrile] | 100% | 
8 | Cn1cncc1CN(Cc1ccc(C(=O)O)cc1)c1ccc(C#N)c(-c2cccc3ccccc23)c1 [Example 269, 4-((4-cyano((1-methyl-1H-imidazol-5-yl)methyl)-3-(1-naphthyl)anilino)methyl)benzoic acid] |  | 100%
9 | Cc1ccccc1-c1cc(N(Cc2ccccc2)Cc2cnc[nH]2)ccc1C#N [Example 270, 5-(benzyl(1H-imidazol-5-ylmethyl)amino)-2′-methyl(1,1′-biphenyl)-2-carbonitrile] | 100% | 
10 | COC(=O)c1cccc(CN(Cc2cncn2C)c2ccc(C#N)c(-c3cccc4ccccc34)c2)c1 [Example 271, methyl 3-((4-cyano((1-methyl-1H-imidazol-5-yl)methyl)-3-(1-naphthyl)anilino)methyl)benzoate] |  | 100%
11 | Cl.Cl.Cn1cncc1C(OCc1ccc(C#N)nc1)c1ccc(C#N)c(-c2cccc3ccccc23)c1 (stereo not shown) [Example 274, 5-(((4-cyano-3-(1-naphthyl)phenyl)(1-methyl-1H-imidazol-5-yl)methoxy)methyl)-2-pyridinecarbonitrile dihydrochlolide] |  | 100%

Further lines, results first:

Row | inhibition at 1 µM | % Inhibition at 10^−6M | SMILES
12 | 90% |  | Cn1cncc1C(OCc1ccc(C(N)=O)cn1)c1ccc(C#N)c(-c2cccc3cccnc23)c1 (stereo not shown) [Example 244, 6-(((4-cyano-3-(8-quinolinyl)phenyl)(1-methyl-1H-imidazol-5-yl)methoxy)methyl)nicotinamide trihydrochloride]
13 | 90% |  | Cn1cncc1C(OCc1ccc(C(=O)O)cn1)c1ccc(C#N)c(-c2cccc3cccnc23)c1 (stereo not shown) [Example 245, 6-(((4-cyano-3-(8-quinolinyl)phenyl)(1-methyl-1H-imidazol-5-yl)methoxy)methyl)nicotinic acid trihydrochloride]
14 | 90% |  | Cn1cncc1C(OCc1ncc(C(F)(F)F)cc1Cl)c1ccc(C#N)c(-c2cccc3cccnc23)c1 (stereo not shown) [Example 246, 4-(((3-chloro-5-(trifluoromethyl)-2-pyridinyl)methoxy)(1-methyl-1H-imidazol-5-yl)methyl)-2-(8-quinolinyl)benzonitrile]
15 | 98% |  | Cn1cncc1C(OCc1ccc(C(F)(F)F)c(F)c1)c1ccc(C#N)c(-c2ccccc2C(F)(F)F)c1 (stereo not shown) [Example 249, 5-(((3-fluoro-4-(trifluoromethyl)benzyl)oxy)(1-methyl-1H-imidazol-5-yl)methyl)-2′-(trifluoromethyl)(1,1′-biphenyl)-2-carbonitrile hydrochloride]
16 | 99% |  | Cn1cncc1C(OCc1ccc(C#N)cn1)c1ccc(C#N)c(-c2ccccc2C(F)(F)F)c1 (stereo not shown) [Example 251, 6-(((6-cyano-2′-(trifluoromethyl)(1,1′-biphenyl)-3-yl)(1-methyl-1H-imidazol-5-yl)methoxy)methyl)nicotinonitrile dihydrochloride]
17 | 94% |  | Cn1cncc1C(OCc1ccc(C#N)c(-c2cccc3ccccc23)c1)c1ccccc1 (stereo not shown) [Example 256, 4-(((1-methyl-1H-imidazol-5-yl)(phenyl)methoxy)methyl)-2-(1-naphthyl)benzonitrile hydrochloride]
18 | 90% |  | Cn1cncc1C(CCc1ccccc1)NCc1ccc(C#N)c(-c2cccc3ccccc23)c1 (stereo not shown) [Example 260, 4(((1-(1-methyl-1H-imidazol-5-yl)-3-phenylpropyl)amino)methyl)-2-(1-naphthyl)benzonitrile dihydrochloride]
19 | 100% |  | Cn1cncc1CN(Cc1cccc(Cl)c1)c1ccc(C#N)c(-c2cccc3ccccc23)c1 [Example 264, 4-((3-chlorobenzyl)((1-methyl-1H-imidazol-5-yl)methyl)amino)-2-(1-naphthyl)benzonitrile]
20 | 100% |  | N#Cc1ccc(N(Cc2ccccc2)Cc2cnc[nH]2)cc1-c1cccc2ccccc12 [Example 265, 4-(benzyl(1H-imidazol-5-ylmethyl)amino)-2-(1-naphthyl)benzonitrile]
21 | 100% |  | Cn1cncc1CN(Cc1cccc(C#N)c1)c1ccc(C#N)c(-c2cccc3ccccc23)c1 [Example 266, 4-((3-cyanobenzyl)((1-methyl-1H-imidazol-5-yl)methyl)amino)-2-(1-naphthyl)benzonitrile]
22 | 100% |  | Cn1cncc1CN(c1ccc(C#N)c(-c2cccc3ccccc23)c1)S(=O)(=O)c1ccccc1 [Example 267, N-(4-cyano-3-(1-naphthyl)phenyl)-N-((1-methyl-1H-imidazol-5-yl)methyl)benzenesulfonamide]
23 |  | 100% | COC(=O)c1ccc(CN(Cc2cncn2C)c2ccc(C#N)c(-c3cccc4ccccc34)c2)cc1 [Example 268, methyl 4-((4-cyano((1-methyl-1H-imidazol-5-yl)methyl)-3-(1-naphthyl)anilino)methyl)benzoate]
24 | 100% |  | Cn1cncc1C(OCc1cccc(Cl)c1)c1ccc(C#N)c(-c2cccc3ccccc23)c1 (stereo not shown) [Example 273, 4-((1-methyl-1H-imidazol-5-yl)((3-chlorobenzyl)oxy)methyl)-2-(1-naphthyl)benzonitrile hydrochloride]
25 | 100% |  | Cn1cncc1C(OCc1ccc(C#N)cc1)c1cnc(C#N)c(-c2cccc3ccccc23)c1 (stereo not shown) [Example 275, 5-(((4-cyanobenzyl)oxy)(1-methyl-1H-imidazol-5-yl)methyl)-3-(1-naphthyl)-2-pyridinecarbonitrile dihydrochloride]
